Assay results from PubChem BioAssay (NCI).
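Interpolation was linear, between the two tested concentrations surrounding the appropriate level; five concentrations were tested over 48 hours in 96-well plates. At the TGI there is no net growth.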

Columns and labels:
Test in all cases: inhibition of tumour cell growth, NCI panel, 48 h
[1] = test system: 786-0 renal
[2] = test system: A498 renal
[3] = test system: A549 NSCLC
[4] = test system: ACHN renal
[5] = test system: BT-549 breast
[6] = test system: CAKI-1 renal
[7] = test system: CCRF-CEM leukemia
[8] = test system: COLO 205 colon
[9] = test system: DU-145 prostate
[10] = test system: EKVX NSCLC
[11] = test system: HCC-2998 colon
[12] = test system: HCT-116 colon
[13] = test system: HCT-15 colon
[14] = test system: HL-60(TB) leukemia
[15] = test system: HOP-62 NSCLC
[16] = test system: HOP-92 NSCLC
[17] = test system: HT29 colon
[18] = test system: IGROV1 ovarian
[19] = test system: K-562 leukemia
[20] = test system: KM12 colon
[21] = test system: LOX IMVI melanoma
[22] = test system: M14 melanoma
[23] = test system: MCF7 breast
[24] = test system: MDA-MB-435
[25] = test system: MDA-N
[26] = test system: MOLT-4 leukemia
[27] = test system: NCI-H226 lung
[28] = test system: NCI-H23 lung
[29] = test system: NCI-H460 lung
[30] = test system: NCI/ADR-RES ovarian
[31] = test system: OVCAR-3 ovarian
[32] = test system: OVCAR-4 ovarian
[33] = test system: OVCAR-5 ovarian
[34] = test system: OVCAR-8 ovarian
[35] = test system: PC-3 prostate
[36] = test system: RPMI-8226 leukemia
[37] = test system: RXF 393 renal
[38] = test system: SF-295 CNS
[39] = test system: SK-MEL-2 melanoma
[40] = test system: SK-MEL-28 melanoma
[41] = test system: SK-MEL-5 melanoma
[42] = test system: SK-OV-3 ovarian
[43] = test system: SN12C renal
[44] = test system: SNB-19 CNS
[45] = test system: SNB-75 CNS
[46] = test system: SR leukemia
[47] = test system: SW-620 colon
[48] = test system: T-47D breast
[49] = test system: TK-10 renal
[50] = test system: U251 CNS
[51] = test system: UACC-257 melanoma
[52] = test system: UACC-62 melanoma
[53] = test system: UO-31 renal
[54] = test system: HS 578T breast
[55] = test system: MALME-3M melanoma
[56] = test system: MDA-MB-231 breast
[57] = test system: NCI-H522 lung
[58] = test system: SF-268 CNS
[59] = test system: SF-539 CNS

For CCOC(=O)CC1C(C(=O)OCC)=Cn2c([nH]c3cccc4cccc2c43)=C1C(=O)OCC (stereo unspecified), the TGI [1] was greater than 100 µM, the TGI [2] was greater than 100 µM and the TGI [3] was greater than 100 µM. It also gave a TGI [4] greater than 100 µM, a TGI [5] greater than 100 µM and a TGI [6] greater than 100 µM. The TGI [7] was greater than 100 µM, the TGI [8] was greater than 100 µM and the TGI [9] was greater than 100 µM. It also gave a TGI [10] greater than 100 µM, a TGI [11] greater than 100 µM and a TGI [12] greater than 100 µM. The TGI [13] was greater than 100 µM, the TGI [14] was greater than 100 µM and the TGI [15] was greater than 100 µM. For the same compound, the TGI [16] was greater than 100 µM, the TGI [17] was greater than 100 µM and the TGI [18] was greater than 100 µM. The TGI [19] was greater than 100 µM, the TGI [20] was greater than 100 µM and the TGI [21] was greater than 100 µM. For the same compound, the TGI [22] was greater than 100 µM, the TGI [23] was greater than 100 µM and the TGI [24] was greater than 100 µM. For the same compound, the TGI [25] was greater than 100 µM, the TGI [26] was greater than 100 µM and the TGI [27] was greater than 100 µM. For the same compound, the TGI [28] was greater than 100 µM, the TGI [29] was greater than 100 µM and the TGI [30] was greater than 100 µM. For the same compound, the TGI [31] was greater than 100 µM, the TGI [32] was greater than 100 µM and the TGI [33] was greater than 100 µM. It also gave a TGI [34] greater than 100 µM, a TGI [35] greater than 100 µM and a TGI [36] greater than 100 µM. It also gave a TGI [37] greater than 100 µM, a TGI [38] greater than 100 µM and a TGI [39] greater than 100 µM. The TGI [40] was greater than 100 µM, the TGI [41] was greater than 100 µM and the TGI [42] was greater than 100 µM. The TGI [43] was greater than 100 µM, the TGI [44] was greater than 100 µM and the TGI [45] was greater than 100 µM. It also gave a TGI [46] greater than 100 µM, a TGI [47] greater than 100 µM and a TGI [48] greater than 100 µM. For the same compound, the TGI [49] was greater than 100 µM, the TGI [50] was greater than 100 µM and the TGI [51] was greater than 100 µM. For the same compound, the TGI [52] was greater than 100 µM and the TGI [53] was greater than 100 µM.

CC(CSc1nc2c(c(=N)n1-c1ccccc1)c(=S)n(-c1ccccc1)c(=S)n2-c1ccccc1)CN(C)C (stereo unspecified) was tested, and the TGI [1] was 2.37 µM, the TGI [2] was 6 µM and the TGI [4] was 3.15 µM. The TGI [5] was 3.52 µM, the TGI [6] was 2.97 µM and the TGI [7] was 1.49 µM. The TGI [8] was 3.48 µM, the TGI [9] was 3.03 µM and the TGI [10] was 3.12 µM. For the same compound, the TGI [11] was 2.7 µM, the TGI [12] was 3.07 µM and the TGI [13] was 3.17 µM. For the same compound, the TGI [14] was 2.37 µM, the TGI [15] was 3.62 µM and the TGI [16] was 2.97 µM. The TGI [54] was greater than 28.7 µM, the TGI [18] was 2.79 µM and the TGI [19] was 3.14 µM. It also gave a TGI [20] of 5.6 µM, a TGI [21] of 2.57 µM and a TGI [22] of 3.56 µM. It also gave a TGI [55] of 3.23 µM, a TGI [23] of 1.05 µM and a TGI [56] of 3.46 µM. For the same compound, the TGI [24] was 3.13 µM, the TGI [25] was 3.76 µM and the TGI [26] was 3.02 µM. It also gave a TGI [27] of 14.2 µM, a TGI [28] of 4.89 µM and a TGI [29] of 4.14 µM. It also gave a TGI [57] of 2.83 µM, a TGI [30] of 11.8 µM and a TGI [31] of 3.09 µM. For the same compound, the TGI [32] was 3.2 µM, the TGI [33] was 26.8 µM and the TGI [34] was 3 µM. The TGI [35] was 3.38 µM, the TGI [36] was 1.4 µM and the TGI [37] was 3.32 µM. The TGI [58] was 3.24 µM, the TGI [38] was 16.7 µM and the TGI [59] was 7.9 µM. It also gave a TGI [39] of 5.29 µM, a TGI [40] of 4.67 µM and a TGI [41] of 4.42 µM. For the same compound, the TGI [42] was 11.6 µM, the TGI [43] was 3.55 µM and the TGI [44] was 17.8 µM. It also gave a TGI [45] of 3.41 µM, a TGI [46] of 0.938 µM and a TGI [47] of 8.1 µM. For the same compound, the TGI [49] was 3.07 µM, the TGI [50] was 3.28 µM and the TGI [51] was 3.43 µM. The TGI [52] was 3.15 µM.

Compound COc1cc(-c2cc(OC)c(OC)c3ccc(Br)cc23)c2cc(Br)ccc2c1OC has a TGI [1] of 34.2 µM, a TGI [2] of 44.9 µM and a TGI [3] of 45.2 µM. It also gave a TGI [4] of 51.4 µM, a TGI [6] greater than 100 µM and a TGI [8] greater than 100 µM. The TGI [9] was 93.4 µM, the TGI [10] was greater than 100 µM and the TGI [11] was 92 µM. For the same compound, the TGI [12] was 24.9 µM, the TGI [13] was greater than 100 µM and the TGI [15] was 44.7 µM. The TGI [16] was 40.3 µM, the TGI [54] was 94.4 µM and the TGI [17] was greater than 100 µM. For the same compound, the TGI [18] was 85.3 µM, the TGI [19] was 77.8 µM and the TGI [21] was 46.6 µM. The TGI [22] was 44.7 µM, the TGI [55] was 52.9 µM and the TGI [23] was 85.7 µM. It also gave a TGI [56] of 49.5 µM, a TGI [24] of 46.1 µM and a TGI [25] of 42.7 µM. It also gave a TGI [26] greater than 100 µM, a TGI [27] of 58.1 µM and a TGI [28] of 45 µM. The TGI [29] was greater than 100 µM, the TGI [57] was 72.1 µM and the TGI [30] was 90.1 µM. For the same compound, the TGI [31] was 46.5 µM, the TGI [32] was 31.1 µM and the TGI [33] was 39.2 µM. It also gave a TGI [35] of 58 µM, a TGI [36] of 51.7 µM and a TGI [37] of 41 µM. For the same compound, the TGI [58] was 50.8 µM, the TGI [38] was 43.8 µM and the TGI [59] was 38.8 µM. It also gave a TGI [39] of 56 µM, a TGI [40] of 45.7 µM and a TGI [41] greater than 100 µM. It also gave a TGI [42] of 71.8 µM, a TGI [43] of 81.6 µM and a TGI [44] greater than 100 µM. The TGI [46] was 86 µM, the TGI [47] was greater than 100 µM and the TGI [48] was 95.4 µM. For the same compound, the TGI [49] was 52.7 µM, the TGI [50] was 37.7 µM and the TGI [51] was 92.1 µM. The TGI [52] was 47.7 µM and the TGI [53] was 73.7 µM.

CCCCCCCCCCCCCCCC[N+](C)(C)CCl was tested, and the TGI [1] was 3.31 µM, the TGI [2] was 32.2 µM and the TGI [3] was 22.3 µM. The TGI [4] was 8.36 µM, the TGI [5] was 7.87 µM and the TGI [6] was 8.74 µM. The TGI [8] was 4.16 µM, the TGI [9] was 17.2 µM and the TGI [10] was 22.8 µM. It also gave a TGI [11] of 3.18 µM, a TGI [12] of 4.98 µM and a TGI [13] of 20.9 µM. The TGI [14] was 3.12 µM, the TGI [15] was 6.69 µM and the TGI [54] was 5.26 µM. The TGI [17] was 3.82 µM, the TGI [18] was 1.31 µM and the TGI [22] was 6.38 µM. The TGI [55] was 7.38 µM, the TGI [23] was greater than 28.9 µM and the TGI [56] was 4.32 µM. The TGI [24] was greater than 39.2 µM, the TGI [25] was 15.4 µM and the TGI [27] was 6.25 µM. The TGI [28] was 27.8 µM, the TGI [29] was 4.74 µM and the TGI [30] was 49 µM. For the same compound, the TGI [31] was 14.6 µM, the TGI [32] was 8.44 µM and the TGI [33] was 21.6 µM. The TGI [34] was 7.43 µM, the TGI [35] was 7.96 µM and the TGI [36] was 5.16 µM. For the same compound, the TGI [58] was 9.38 µM, the TGI [38] was 6.06 µM and the TGI [59] was 8.13 µM. It also gave a TGI [39] of 49.8 µM, a TGI [40] greater than 50.7 µM and a TGI [41] of 2.94 µM. For the same compound, the TGI [42] was 27.7 µM, the TGI [43] was 12.8 µM and the TGI [44] was 3.81 µM. For the same compound, the TGI [45] was 5.18 µM, the TGI [47] was greater than 100 µM and the TGI [48] was 23.6 µM. For the same compound, the TGI [49] was 6.41 µM, the TGI [50] was 3.04 µM and the TGI [51] was 21.1 µM. The TGI [52] was 6.46 µM and the TGI [53] was 27.9 µM.
